Values of other authors as cited in patent publication US20140271816A1, “TREATMENT OF POTENTIAL PLATELET AGGREGATION WITH LIPOSOMALLY FORMULATED GLUTATHIONE AND CLOPIDOGREL” (priority 2013, published 2014).
Read-outs that look alike come from different tables or passages of the source.

Key:
[1] = oral, 75 mg clopidogrel (base)
[2] = humans, plain non-formulated glutathione
[3] = rat; for toxin remaining: Co-60 in liver

COC(=O)[C@H](c1ccccc1Cl)N1CCc2sccc2C1 [Clopidogrel, clopidogrel]
peak plasma levels of the main circulating metabolite [1]: approx. 3 mg/L | time of peak plasma levels after dosing ([1]; main circulating metabolite): approximately one

CC(=O)N[C@@H](CS)C(=O)O [NAC, N-Acetyl cysteine]
activity in forming the AM relative to GSH (percent of the activity of GSH): less than 10%

N[C@@H](CCC(=O)N[C@@H](CS)C(=O)NCC(=O)O)C(=O)O [Plain glutathione, reduced glutathione]
rank as reducing agent needed to form the active metabolites of clopidogrel (ex vivo studies): best reducing agent | absorption after oral administration ([2]; listed as glutathione): not absorbed well | absorption after oral administration ([2]; listed as plain GSH): not absorbed | absorption after oral administration ([2]; listed as plain glutathione): not absorbed | toxin remaining ([3]; intravenous administration): 36% | toxin remaining ([3]; oral administration): 100% | removal of toxin / radiotagged marker (Co-60) from the liver ([3]; intravenous administration): 64% | removal of toxin / radiotagged marker (Co-60) from the liver ([3]; oral administration): 0% | removal of toxin / radiotagged marker (Co-60) from the liver ([3]; oral administration, listed as plain GSH): no function
